The test system of one series is Plasmodium falciparum. The series can be described thus: In vitro drug screening model against Plasmodium falciparum (drug sensitivity assay, Malstat LDH read-out). Conditions: for score: score in brackets after the IC50, scale not defined. In kind it is cell-based. How it is done:
Malaria: In Vitro Drug Screening Model Against Plasmodium falciparum
Two strains of P. falciparum were used: 1/GHA strain (P. falGHA), derived from a Ghanese patient and chloroquine sensitive and 2/W-2 strain (P.falW2) from CDC/Indochina III and resistant to chloroquine, quinine, pyrimethamine, but susceptible to mefloquine. The strains were maintained in RPMI-1640 medium supplemented with 0.37 mM hypoxanthine, 25 mM Hepes, 25 mM NaHCO3, and 10% O+ human serum together with 2-4% washed human O+ erythrocytes (Adaptation of the procedures described by Trager, W.; Jensen J. B. Science 1976, 193, 673-677). All cultures and assays were conducted at 37° C. under an atmosphere of 4% CO2, 3% O2 and 93% N2.
Compound stock solutions were prepared in 100% DMSO at 20 mM or mg/ml (Concentrations are standard expressed in molar concentrations). The compounds were serially pre-diluted (2-fold or 4-fold) in DMSO followed by a further (intermediate) dilution in demineralized water to assure a final in-test DMSO concentration of <1%.
Assays were performed in sterile 96-well microtiter plates, each well containing 10 μl of the watery compound dilutions together with 190 μl of the malaria parasite inoculum (1% parasitaemia, 2% HCT). Parasite growth was compared to untreated-infected (100% growth) and uninfected-controls (0% growth). After 72 h incubation at 37° C., plates were frozen at −20° C. After thawing, 20 μl of each well was transferred into another plate together with 100 μl Malstat reagent (Lactate dehydrogenase (LDH)-test, according to Makler et al.: Am. J. Trop Med. Hyg, 48, 7339-741, 1993) and 20 μl of a 1/1 mixture of PES (phenazine ethosulfat, 0.1 mg/ml) and NBT (NitroBlue Tetrazolium Grade III, 2 mg/ml). The plates were kept out of light for 2 hours and change in color was measured spectrophotometrically at 655 nm. The results were expressed as % reduction in parasitaemia compared to control wells. For each compound, an IC50 was calculated.
The GHA strain was used. Compounds were tested at 5 concentrations (64-16-4-1 and 0.25 μM or μg/ml). […] Some of the compounds were evaluated in a secondary screening.
Additional strains (GHA, W2, D6, NF54) were included and the IC50-values were determined using an extended dose range (2-fold compound dilutions). Artesunate and chloroquine were included as reference drugs.

Series [1] has as its system other strains of parasites. The experiment in a line: Activity against other strains of parasites (selectivity). In kind it is cell-based.
[2] abbreviates: Plasmodium falciparum, Table 2, P. falciparum, strain not given, 72 h incubation, read-out: IC50.

pIC50: −log10 of the molar value. Values joined by “and” are separate entries in the source; they are usually repeats but may differ in a detail not shown here. Identical values can stand only once. Like-named read-outs stand apart in the source and are kept apart here.

With `C[C@H]1[C@H](OC(=O)CCC(=O)O)O[C@@H]2O[C@@]3(C)CC[C@H]4[C@H](C)CC[C@@H]1[C@@]24OO3` [Artesunate, reference compound], the pIC50 – broadly, the negative decadic logarithm of the IC50, by convention in mol/L – in the series on Plasmodium falciparum (Plasmodium falciparum, 72 h) is 8.30.

Turning to `CCN(CC)CCCC(C)Nc1ccnc2cc(Cl)ccc12` (stereo not drawn) [Chloroquine, chloroquine, reference compound], the IC50 – broadly, the concentration that inhibits the measured activity by half – with Plasmodium falciparum (Plasmodium falciparum, 72 h) was 50 nM and 0.04 µg/mL.

In the case of `c1ccc2[nH]c(-c3ccc(OCCCOc4ccc(-c5nc6ccccc6[nH]5)cc4)cc3)nc2c1` [Compound 1, 2,2′-[1,3-propanediylbis(oxy-1,4-phenylene)]bis-1H-benzimidazole], the melting point (usually the temperature of the solid-liquid transition) was above 300 °C. Also, the IC50 in the series on Plasmodium falciparum (setting [2]) stood at 16.6 µg/mL. Moreover, the score in the series on Plasmodium falciparum (Table 2) is recorded as 1.

The molecule `c1ccc2[nH]c(-c3ccc(OCCCCOc4ccc(-c5nc6ccccc6[nH]5)cc4)cc3)nc2c1` [Compound 2, 2,2′-[1,4-butanediylbis(oxy-1,4-phenylene)]bis-1H-benzimidazole] yielded a melting point above 300 °C.

The molecule `c1ccc2[nH]c(-c3ccc(OCCCCCOc4ccc(-c5nc6ccccc6[nH]5)cc4)cc3)nc2c1` [Compound 3, 2,2′-[1,5-pentanediylbis(oxy-1,4-phenylene)]bis-1H-benzimidazole] came in with a melting point above 300 °C. Also, the IC50 with Plasmodium falciparum (setting [2]) came to 0.49 µg/mL. In the series with Plasmodium falciparum (Table 2), the score worked out at 3. Besides, in series [1], the “activity against some other strains of parasites (selectivity compared to chloroquine)” value is “not active”.

As to `c1ccc2[nH]c(-c3ccc(OCCCCCCOc4ccc(-c5nc6ccccc6[nH]5)cc4)cc3)nc2c1` [Compound 4, 2,2′-[1,6-hexanediylbis(oxy-1,4-phenylene)]bis-1H-benzimidazole], the melting point was above 300 °C.

In turn, `c1ccc2[nH]c(-c3ccc(OCCCCCCCOc4ccc(-c5nc6ccccc6[nH]5)cc4)cc3)nc2c1` [Compound 5, 2,2′-[1,7-heptanediylbis(oxy-1,4-phenylene)]bis-1H-benzimidazole] registered a melting point of 298 to 301 °C.

For the molecule `c1cc(OCCCCCOc2cccc(-c3nc4ccccc4[nH]3)c2)cc(-c2nc3ccccc3[nH]2)c1` [Compound 6, 2,2′-[1,5-pentanediylbis(oxy-1,3-phenylene)]bis-1H-benzimidazole], the melting point was in the range of 240 to 243 °C. In addition, in the series with Plasmodium falciparum (setting [2]), the IC50 was found to be 3.91 µg/mL. Further, the score in the series with Plasmodium falciparum (Table 2) is 2.

`c1ccc(-c2nc3ccccc3[nH]2)c(OCCCCCOc2ccccc2-c2nc3ccccc3[nH]2)c1` [Compound 7, 2,2′-[1,5-pentanediylbis(oxy-1,2-phenylene)]bis-1H-benzimidazole] registered a melting point of 190 to 193 °C. In addition, the IC50 with Plasmodium falciparum (setting [2]) was 8.31 µg/mL. Moreover, in the series on Plasmodium falciparum (Table 2), the score is reported as 2.
